In USRE35224E (The Board of Trustees of the Leland Stanford Junior …, priority 1993, dated 1996):
“Also recorded” adds a separate entry of the source. Where a name gives a salt, the structure may show the parent alone.

Legend:
natural suppressor cells [1] = target: T1, natural suppressor cells (Mus musculus, UniProt P97292); experiment: Effects of histamine derivatives on cAMP accumulation in natural suppressor (NS) cells; format: cell-based, mouse (BALB/c); details: for Relative potency: histamine = 1.0; for Activity / potency on NS cells (in words): cAMP accumulation, H2 activity; for Maximal efficacy on cAMP concentrations (in words): compared with histamine
T1 construct: cAMP accumulation
Excerpt: NS cells were obtained and cultured as follows: four-to six-month old BALB/c mice were anesthetized with pentobarbital and all major lymphoid organs, including all major lymph nodes, the spleen, and the thymus, were irradiated as described by Slavin et al., Science (1976) 193:1252. The skull, lungs, and hind legs were shielded with lead. The mice were given 200 rad per day, 5 times per week, to a total dose of 3400 rad. Irradiation was delivered from a single 250 kV (15A) source (Philips Medical Systems, Inc., Shelton, CT). The mice were killed between 5 and 15 days after completion of the TLI. Spleens were removed aseptically and single cell suspensions were prepared by gently pressing the spleen fragments through a nylon fiber mesh (Tetko, Inc., Elmsford, NY). These spleen cells were fed daily with tissue culture medium containing RPMI 1640, 10% FCS, 2 mM glutamine, 10% CAS and 5×10^-5 M 2-mercaptoethanol and were later cloned by limiting dilutior, The clones were maintained in RPMI 1640 medium with 10% PCS and 10% CAS.
NS cells were centrifuged and resuspended at b 1×10^6 /ml in PBS and incubated at 37° C. for 10 min with 10 mM IBMX at a final concentration at 20 μM. Alternatively the cells were resuspended in 5 mM HEPES and 1 mM MgSO4 and after five minutes were disrupted in a Dounce homogenizer. Broken cells were centrifuged at 20,000 g […] for thirty minutes and supernatant was discarded. The pellet was resuspended in Tris (pH 7.5), 5 mM HEPES and 1 mM MgSO4 and incubated with IBMX.
Cold TCA (100%) was added to a final concentration of 8% and the tubes were stored in ice. Samples were extracted 3 times with 3 volumes of ether. The ether was evaporated at 40° C. in a water bath for approximately 45 min. Acetylation of both experimental samples and cAMP standards were performed by addition of 10 μl of a mixture of triethylamine and acetic anhydride (2:1). […] The radio-immunoassay was performed as reported previously by Khan et al., J. Clin. Invest. (1985) 75:1578.

[2] = target: T2, guinea pig myocardial adenylate cyclase (Cavia porcellus, UniProt P47747); experiment: Guinea pig myocardial adenylate cyclase assay; format: biochemical; details: adenylate cyclase
T2 construct: histamine-stimulated adenylate cyclase with GPP(NH)P
Method: Male, partly albino, guinea pigs (600 g average weight) were killed by a blow to the head. The hearts were excised and immediately immersed in ice cold oxygenated Tyrode's solution. Both ventricles were dissected free and placed in 250 mM sucrose, 5 mM Tris, 1 mM EDTA, pH 7.45. The tissue was minced with a screen, and was then homogenized with 3 consecutive 5 sec bursts of a Polytron (Brinkman Instruments, Inc., Westbury, NY) at a setting of 11. The homogenate was then centrifuged at 1085×g for 20 min. The pellet was resuspended and recentrifuged twice. The final suspension was filtered through four layers of gauze. Adenylate cyclase was assayed by the method of Salomon et al., Anal. Biochem. (1974) 58:541 as modified by Bristow et al., Mol Pharmacol. (1982) 21:671. Enzyme protein (75-250 μg) was added to a reaction mixture that consisted of 0.1 mM Mg ATP, 0.5 mM MgCl2, 10 mM phosphocreatine, 14.5 μg of creatine kinase (1381 U/mg), 100 mM
The final reaction volume before addition of α-^32 P!ATP was 225 μl. Reaction tubes were stored in cryogenic racks (Kryorack, Isolab, Inc. Akron, OH) at 0° C.
The reaction mixture was pre-warmed in a shaking water bath at 30° C. for 5 min after which 25 μl ([…]) of α-^32 P!ATP (250-500 Ci/mM) was added to label the ATP pool. The assay time was 20 min, the time needed for measurable stimulation of adenylate cyclase. The ^32 P reaction was stopped by the addition of 750 μl of 1% sodium dodecysulfate. ^32 P-labelled cyclic AMP was then isolated by the dual Dowex-alumina column method of Salomon et al., supra. α-^32 P!ATP (New England Nuclear Corporation, Boston, MA) that gave reagent blanks of 50 cpm was purified on Dowex columns as described by Salomon et al., supra.

natural suppressor cells [3] = target: T1, natural suppressor cells; experiment: Blocking histamine effects in natural suppressor cells (H2 antagonism); format: cell-based, mouse (BALB/c); details: for Antagonism by cimetidine (H2 antagonist) of cAMP accumulation: cimetidine 10^-5 M, compounds 6-8 at 10^-4 M, 9 at 10^-7 M
Method: This assay was carried out in the same fashion as already described for the derivatives except that ED-90 concentration of the test compound was chosen. Cimetidine was added at the same time in concentrations ranging from 10^-4 to 10^-8 M. Alternatively, 10^-6 M cimetidine was added to 10^-3 -10^-8 M concentration of agonists.

natural suppressor cells [4] = experiment: Mixed leukocyte reaction (MLR) suppressor assay; format: cell-based, mouse (BALB/c, C57 BL/6); details: with compound 10; cimetidine 10^-5 M or mepyramine 10^-6 M, four hours at 37° C
Method: Responder (BALB/c) and stimulator (C57 BL/6) spleen cells (5×10^5each) were incubated with graded numbers of NS cells in 0.3 ml/well in 96-well flat bottomed microculture plates (Costar, Data Packaging, Cambridge, MA). The culture medium was supplemented with 100 U/ml penicillin, 100 ug/ml of streptomycin (both GIBCO, Grand Island, NY), and 10=pooled human serum (VSP human serum, Biocell Laboratories, Carson CA). Co-cultured cells and stimulator cells were given 3300 rad before incubation. Cultures were maintained at 37° C. in 5% CO2 for 5 or 6 days. Eighteen hr before termination, 1 μCi of ^3 H!-thymidine (specific activity […]) (New England Nuclear, Boston, MA) was added to each culture. Cells were harvested as described above. The data were expressed as the arithmetic mean of triplicate cultures. Suppression was calculated as follows: percent suppression=1-(CPM with co-cultured cells)/(CPM without co-cultured cells)×100. […] To block the effects of agonists, […] cimetidine was used as an H2 antagonist and 10^-6 M mepyramine was used as an H1 antagonist.
CO-cultured and stimulator cells were given 3300 rad in vitro just prior to incubation. […] See, Khan et al., J. Immunol. (1985) 134:4100. […] To determine the role of H1 and H2 receptors in the modification of NS cell function, the incubation with compound 10 was carried out in the presence of either cimetidine (10^-5 M) or mepyramine (10^-6 M) for four hours at 37° C. The cells were then washed extensively and later added to co-cultures with responder and stimulator cells. […] Similar experiments were carried out with each of the indicated agonists (Table 5).

T2 sequence (P47747 whole entry): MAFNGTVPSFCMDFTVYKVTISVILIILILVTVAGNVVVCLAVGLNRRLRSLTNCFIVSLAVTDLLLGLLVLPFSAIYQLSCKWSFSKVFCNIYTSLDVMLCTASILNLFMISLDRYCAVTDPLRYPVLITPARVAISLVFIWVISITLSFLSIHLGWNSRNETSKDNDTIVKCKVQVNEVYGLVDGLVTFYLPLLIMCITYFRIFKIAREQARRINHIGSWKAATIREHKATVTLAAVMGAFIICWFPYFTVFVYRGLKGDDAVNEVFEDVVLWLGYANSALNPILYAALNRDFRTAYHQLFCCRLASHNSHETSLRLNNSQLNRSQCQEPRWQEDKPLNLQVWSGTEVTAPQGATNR
T1 sequence (P97292 whole entry): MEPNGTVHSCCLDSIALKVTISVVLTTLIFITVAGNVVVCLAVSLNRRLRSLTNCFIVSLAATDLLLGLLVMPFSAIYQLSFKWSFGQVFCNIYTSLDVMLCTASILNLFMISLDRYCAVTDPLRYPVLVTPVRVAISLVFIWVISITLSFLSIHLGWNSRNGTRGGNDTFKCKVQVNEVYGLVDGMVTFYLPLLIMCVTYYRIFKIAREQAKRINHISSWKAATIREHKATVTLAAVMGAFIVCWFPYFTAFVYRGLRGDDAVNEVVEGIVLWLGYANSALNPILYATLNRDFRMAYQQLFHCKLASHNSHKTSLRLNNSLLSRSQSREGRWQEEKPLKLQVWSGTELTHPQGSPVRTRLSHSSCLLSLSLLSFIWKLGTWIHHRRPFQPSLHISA

SMILES | Relative potency (natural suppressor cells [1]; NS cells) | Antagonism by cimetidine (H2 antagonist) of cAMP accumulation (natural suppressor cells [3]) | Potency relative to histamine (in words) (natural suppressor cells [1]; NS cells) | Activity / potency on NS cells (in words) (natural suppressor cells [1]) | Activity on guinea pig myocardium (in words) [2] | further results
CCCCCCNCCc1c[nH]cn1 [Compound 1, 1-2'-(4"-Imidazo)ethylamino!hexane, Dihydrochloride] | 0.5 × 10^1 | not inhibited by the H2 antagonist |  |  |  | Potency relative to histamine (in words) (natural suppressor cells [1]; NS cells, Dihydrochloride): about equipotent to histamine; also recorded: equipotent to histamine on the lymphocyte accumulation of cyclic AMP; Activity on guinea pig myocardium (in words) ([2]; Dihydrochloride): completely inactive; also recorded: little or no effect on the myocardium
Cc1ccc(NC(=O)CCCC(=O)NCCc2c[nH]cn2)cc1 [Compound 4, 5-2'-(4"-Imidazo)ethylamido!glutaryl p-Toluidine] | 0.4 × 10^1 | not inhibited by the H2 antagonist | four times more potent than histamine; also recorded: equipotent to histamine on the lymphocyte accumulation of cyclic AMP | very active on NS cells | inactive on the guinea pig myocardium; also recorded: little or no effect on the myocardium | 
Cc1ccc(NC(=O)CCCCNCCc2c[nH]cn2)cc1 [Compound 5, 5-2'-(4"-Imidazo)ethylamino!pentanoic Acid p-Toluide, Dihydrochloride] | 0.2 × 10^1 |  |  |  |  | Activity on guinea pig myocardium (in words) ([2]; Dihydrochloride): significantly different in their activity
Cc1ccc(NC(=O)CCCC(C)NCCc2c[nH]cn2)cc1 (stereo not shown) [Compound 6] | 3.8 × 10^3 | could not be completely inhibited by the H2 antagonist | three orders of magnitude more potent than histamine | very potent in NS cell cAMP assays | strikingly impotent in guinea pig myocardium; also recorded: less potent than histamine on the myocardium; also recorded: very weak effects; also recorded: significantly different in their activity | Potency or activity relative to histamine (natural suppressor cells [1]; NS cells): 3000 fold; Activity / potency on NS cells (in words) (natural suppressor cells [1]; listed as compound 6): widely divergent activity; also recorded: retained H2 activity; Activity on guinea pig myocardium (in words) ([2]; listed as compound 6): same rank order of potency found in the NS cells
Cc1ccc(NC(=O)CCCCC(C)NCCc2c[nH]cn2)cc1 (stereo not shown) [Compound 7, 6-2'-(4"-Imidazolyl)ethylamino!heptanoic Acid p-Toluide] | 0.3 × 10^1 |  | three times as potent as histamine | widely divergent activity | same rank order of potency found in the NS cells | 
Cc1ccc(NC(=O)CCCCCC(C)NCCc2c[nH]cn2)cc1 (stereo not shown) [Compound 8] | 0.2 × 10^1 |  |  | widely divergent activity | very weak effects | Activity on guinea pig myocardium (in words) ([2]; listed as compound 8): same rank order of potency found in the NS cells
CC(CCCCC(=O)Nc1ccc(C(F)(F)F)cc1)NCCc1c[nH]cn1 (stereo not shown) [Compound 9] | 4.3 × 10^4 | could not be completely inhibited by the H2 antagonist |  | very potent in NS cell cAMP assays | strikingly impotent in guinea pig myocardium | Potency or activity relative to histamine (natural suppressor cells [1]; NS cells): 40,000 fold; Potency relative to histamine (natural suppressor cells [1]; NS cells): 4 orders of magnitude; Maximal efficacy on cAMP concentrations (in words) (natural suppressor cells [1]; NS cells): lost a significant amount of maximal efficacy; Activity / potency on NS cells (in words) (natural suppressor cells [1]; listed as compound 9): most potent of this series on H2 receptors; also recorded: retained H2 activity; Activity on guinea pig myocardium (in words) ([2]; listed as compound 9): did not stimulate adenylate cyclase in guinea pig myocardium
CNC(=O)CNC(=O)[C@H](Cc1ccc(NC(=O)CCCCC(C)NCCc2c[nH]cn2)cc1)NC(=O)OC(C)(C)C (stereo partly shown) [Compound 12] | Inactive |  |  | impotent as H2 receptor agonists on NS cells | stimulated guinea pig myocardium | Activity / potency on NS cells (in words) (natural suppressor cells [1]; listed as compound 12): Neither an aliphatic amide derivative of histamine (compound 3) nor the dipeptide conjugate of histamine (compound 12) altered intracellular cAMP; also recorded: inactive on NS cells; Blockade of histamine mediated accumulation of cAMP (natural suppressor cells [3]; NS cells): failed to block histamine mediated accumulation of cAMP
CN(C)CCCSC(=N)N [Dimaprit, reference compound] |  |  |  | had H2 effects on the NS cells |  | EC50 (natural suppressor cells [1]; NS cells): 60 µM; Maximal efficacy on cAMP concentrations (in words) (natural suppressor cells [1]; NS cells): did not produce the same maximal effects as histamine on cAMP concentrations; Shift of dose response curve by cimetidine (natural suppressor cells [3]; 10^-3 M to 10^-8 M agonist, 10^-6 M cimetidine): parallel shifts to the right
COc1ccc(CN(CCN(C)C)c2ccccn2)cc1 [Mepyramine, reference compound] |  |  |  |  |  | Effect of antagonist on derivative-enhanced suppression in MLR (natural suppressor cells [4]): reversed the increase in suppressive activity of the derivative-stimulated NS cells
